The values below come from PMC12857768 (Journal of medicinal chemistry, 2024).

Each structure is given as a SMILES string. “Also recorded” adds a separate entry of the source.

Data set [1] has as its system circulating organ toxicity biomarkers. Put plainly: In vivo toxicity: circulating markers of organ toxicities. Also noted: species or system mice. As to conditions: serum/plasma at end of study, 10 mg/kg oral gavage, N = 9-10.
In the next data set the target is Pyk2 kinase (Homo sapiens, UniProt Q14289). Put plainly: Pyk2 kinase activity assay. In kind it is biochemical. As to conditions: for Pyk2 kinase inhibitory effect (in words): kinase inhibitory assay.
A further data set concerns skin lesions. Put plainly: Skin lesions / adverse side effects in mice during the in vivo study. On the set-up: species or system C57BL/6 female mice. Conditions: 10 mg/kg oral gavage 5 times per week.
The subject of another data set is GC-induced bone loss. As to conditions: murine model of GC excess; previous studies; cited from earlier work.

Chain of Pyk2 kinase (Q14289 whole entry): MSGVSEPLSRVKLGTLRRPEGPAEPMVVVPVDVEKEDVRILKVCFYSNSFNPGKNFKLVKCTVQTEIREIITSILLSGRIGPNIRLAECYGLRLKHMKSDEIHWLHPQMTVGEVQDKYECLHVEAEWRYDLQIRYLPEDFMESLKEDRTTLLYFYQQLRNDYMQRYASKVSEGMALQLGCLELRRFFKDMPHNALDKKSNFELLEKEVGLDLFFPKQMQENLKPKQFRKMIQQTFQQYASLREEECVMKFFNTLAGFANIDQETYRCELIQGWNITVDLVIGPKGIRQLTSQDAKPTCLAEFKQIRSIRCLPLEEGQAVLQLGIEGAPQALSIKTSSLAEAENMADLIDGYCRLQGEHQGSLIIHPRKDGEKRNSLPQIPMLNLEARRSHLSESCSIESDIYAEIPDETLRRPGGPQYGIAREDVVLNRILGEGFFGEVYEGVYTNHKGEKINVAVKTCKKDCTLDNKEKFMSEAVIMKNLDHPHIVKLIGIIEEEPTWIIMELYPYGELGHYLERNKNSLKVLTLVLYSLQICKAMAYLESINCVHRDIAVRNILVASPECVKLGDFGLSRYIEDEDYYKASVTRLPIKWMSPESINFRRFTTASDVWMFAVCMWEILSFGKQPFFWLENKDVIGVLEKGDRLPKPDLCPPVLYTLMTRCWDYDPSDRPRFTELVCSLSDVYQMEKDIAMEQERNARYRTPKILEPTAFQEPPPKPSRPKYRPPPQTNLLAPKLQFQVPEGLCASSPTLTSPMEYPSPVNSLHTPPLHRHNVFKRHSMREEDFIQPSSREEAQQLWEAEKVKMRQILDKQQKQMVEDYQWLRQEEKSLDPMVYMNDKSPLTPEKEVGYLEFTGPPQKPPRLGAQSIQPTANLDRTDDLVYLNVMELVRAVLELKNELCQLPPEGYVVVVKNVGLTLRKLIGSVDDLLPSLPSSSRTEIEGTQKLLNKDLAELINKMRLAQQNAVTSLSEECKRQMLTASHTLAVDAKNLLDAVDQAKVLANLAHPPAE

Regarding `CNC(=O)c1ccccc1Nc1nc(Nc2ccc(NC(=O)CCCCC(=O)NCCCC(O)(P(=O)(O)O)P(=O)(O)O)cc2OC)ncc1Cl` [BT-Amide, (4-(6-((4-((5-Chloro-4-((2-(methylcarbamoyl)phenyl)amino)pyrimidin-2-yl)amino)-3-methoxyphenyl)amino)-6-oxohexanamido)-1-hydroxybutane-1,1-diyl)bis(phosphonic Acid)], the “Circulating organ toxicity biomarkers vs control groups” value in data set [1] (10 mg/kg) was “no significant difference; also recorded: None of the markers were significantly elevated above control levels”. Further, on Pyk2 kinase, the “Pyk2 kinase inhibitory effect (in words)” value is on record as “moderate inhibitory effects”. In the data set on skin lesions, the “Skin lesions / adverse side effects (in words)” value is recorded as “no adverse side effects were observed”.

In the case of `CNC(=O)c1ccccc1Nc1nc(Nc2ccc(N3CCC(OC(=O)CCCCC(=O)NCCCC(O)(P(=O)(O)O)P(=O)(O)O)CC3)cc2OC)ncc1Cl` [BT-Ester, (4-(6-((1-(4-((5-Chloro-4-((2-(methylcarbamoyl)phenyl)amino)pyrimidin-2-yl)amino)-3-methoxyphenyl)piperidin-4-yl)oxy)-6-oxohexanamido)-1-hydroxybutane-1,1-diyl)bis(phosphonic Acid)], in data set [1], the “Circulating organ toxicity biomarkers vs control groups” value is “None of the markers were significantly elevated above control levels”. Moreover, on Pyk2 kinase, the IC50 (usually the concentration that gives 50% inhibition) is 119 ± 41 nM and the “Pyk2 kinase inhibitory effect (in words)” value is given as “low inhibition”. The “Skin lesions / adverse side effects (in words)” value with skin lesions is recorded as “did not develop skin lesions”.

With `CN(c1ccccc1CNc1nc(Nc2ccc3c(c2)CC(=O)N3)ncc1C(F)(F)F)S(C)(=O)=O` [PF-431396], in the data set on GC-induced bone loss, the “Prevention of GC-induced bone loss” value was “prevents GC-induced bone loss”.
